Results reported in PubChem BioAssay (NCI).
Where “and” joins values, the source holds several entries; their conditions need not be identical. Equal values may be shown once.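 Compound exposure: 48 hours, 5 concentrations, 96-well plates. GI50 = concentration required for 50% inhibition of growth. At the TGI there is no net growth.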

Key:
Assay in all cases: inhibition of tumour cell growth, NCI panel, 48 h
NCI-H522 lung = system: NCI-H522 lung
A549 NSCLC = system: A549 NSCLC
CAKI-1 renal = system: CAKI-1 renal
HCT-15 colon = system: HCT-15 colon
UACC-257 melanoma = system: UACC-257 melanoma
IGROV1 ovarian = system: IGROV1 ovarian
T-47D breast = system: T-47D breast
786-0 renal = system: 786-0 renal
COLO 205 colon = system: COLO 205 colon
M14 melanoma = system: M14 melanoma

SMILES	TGI (NCI-H522 lung)	TGI (A549 NSCLC)	TGI (CAKI-1 renal)	TGI (HCT-15 colon)	TGI (UACC-257 melanoma)	TGI (IGROV1 ovarian)	TGI (T-47D breast)	TGI (786-0 renal)	TGI (COLO 205 colon)	TGI (M14 melanoma)	GI50 (NCI-H522 lung)	GI50 (A549 NSCLC)	GI50 (CAKI-1 renal)	GI50 (HCT-15 colon)	GI50 (UACC-257 melanoma)	GI50 (IGROV1 ovarian)	GI50 (T-47D breast)	GI50 (786-0 renal)	GI50 (COLO 205 colon)	GI50 (M14 melanoma)
COc1ccc2c(=O)cc(-c3ccncc3)oc2c1OC	> 100 µM	> 100 µM	> 100 µM	> 100 µM	> 100 µM	78.1 µM	> 100 µM	> 100 µM	30.8 µM	39 µM										
COC(=O)[C@@]12OC[C@]34[C@H]([C@@H](O)[C@@H]1O)[C@@]1(C)[C@H](O)C(=O)C=C(C)[C@@H]1C[C@H]3OC(=O)C(OC(C)=O)[C@@H]24 (some centres undefined)	0.041 µM	0.294 µM	0.394 µM	0.458 µM	0.428 µM	0.134 µM	0.3 µM	0.0889 µM	0.178 µM	0.0785 µM	< 0.0111 µM	0.0381 µM	0.107 µM	0.101 µM	0.0668 µM	0.0302 µM	0.0362 µM	0.026 µM	0.0408 µM	0.0261 µM
COc1cc2ccccc2oc1=O	> 100 µM	> 100 µM	> 100 µM	> 100 µM	> 100 µM	> 100 µM	> 100 µM	> 100 µM	> 100 µM	> 100 µM										
C=C1/C(=C\C=C2/CCC[C@]3(C)[C@@H]([C@H](C)CCCC(C)(C)O)CC[C@@H]23)C[C@@H](OC(=O)CBr)C[C@@H]1O	0.83 µM	31.5 µM	15.8 µM	3.31 µM	26.8 µM	0.15 µM	19.3 µM	1.89 µM	19.6 µM	8.74 µM	0.255 µM	6.26 µM	3.19 µM	1.48 µM	9.84 µM	0.0604 µM	2.71 µM	0.642 µM	2.58 µM	2.71 µM
O=[N+]([O-])c1ccc2c(c1)Cc1cc(N=Cc3ccc4c(c3)OCO4)ccc1-2	> 100 µM	> 100 µM	> 100 µM	> 100 µM	> 100 µM	> 100 µM	> 100 µM	> 100 µM	> 100 µM	> 100 µM										
C[C@]12CCc3sc(NCCc4ccccc4)nc3C1=CC[C@@H]1[C@@H]2CC[C@]2(C)C(=O)CC[C@@H]12	3.64 µM	> 100 µM	11.1 µM	4.49 µM	79.8 µM	6.18 µM	25.2 µM	9.61 µM	8.77 µM	> 100 µM	1.78 µM	7 µM	3.13 µM	1.57 µM	4.92 µM	2.6 µM	3.05 µM	2.82 µM	3.03 µM	3.63 µM
O=C(Nc1cccc(-n2cc(-c3ccncc3)c(-c3cc(O)cc(Cl)c3)n2)c1)Nc1ccc(Cl)c(C(F)(F)F)c1	4.48 µM	9.2 µM	7.87 µM	6.01 µM	5.34 µM	12.6 µM	9.27 µM	4.45 µM	5.17 µM	3.85 µM	1.32 µM	2.33 µM	2.68 µM	2.21 µM	1.99 µM	3.81 µM	2.44 µM	1.83 µM	2.25 µM	1.72 µM
Cc1cc(NCCN(C(C)C)C(C)C)nc(/N=C(\N)Nc2ccc(Cl)c(C(F)(F)F)c2)n1	0.47 µM	1.11 µM	1.02 µM	0.913 µM	0.337 µM	2.75 µM	0.361 µM	2.06 µM	0.305 µM	0.323 µM	0.206 µM	0.356 µM	0.427 µM	0.276 µM	0.187 µM	0.819 µM	0.183 µM	0.736 µM	0.164 µM	0.181 µM
COc1cc(NC(C)CCCN)c2ncccc2c1 (centres undefined)	> 100 µM	> 100 µM	> 100 µM	> 100 µM	27.2 µM and 54.5 µM	> 100 µM	> 53.2 µM	> 100 µM	41.2 µM and 64 µM	34.5 µM and > 73.6 µM				41.9 µM and 98.4 µM	11.3 µM and 30.2 µM			43.8 µM and > 88.2 µM		16.8 µM and 43.1 µM
NC(=O)c1ccc(I)c(N=O)c1	55.3 µM	> 100 µM	45.4 µM	> 100 µM	> 100 µM	86.4 µM	87.8 µM	> 100 µM	44.3 µM	83.1 µM	21.4 µM	42.1 µM	20 µM	30 µM	35.3 µM	26.7 µM	32.3 µM	61.8 µM	21.7 µM	30.5 µM
CC(=O)C(=Cc1ccc(C=C(C(C)=O)C(C)=O)cc1)C(C)=O	1.93 µM	25.2 µM	4.75 µM	3.44 µM	4.48 µM	4.18 µM	8.49 µM	5.84 µM	3.33 µM	3.59 µM										
CC1OC(OC2C[C@](O)(C(=O)CF)Cc3c(O)c4c(c(O)c32)C(=O)c2ccccc2C4=O)CC(N)C1O (some centres undefined)	0.104 µM	0.173 µM	0.0763 µM	0.514 µM	1.21 µM	2.4 µM	0.151 µM	0.173 µM	0.266 µM	0.368 µM										
